Source: patent US7781565B2 (priority 2006, dated 2010)
Entries after “also recorded” stand apart in the source; their conditions may differ.

Test system: NCI-60 cell lines
Type: cell-based, human

CMAGSQD
Cell Line the peptide is associated with (peptide recovered from phage library selection on this NCI-60 cell line): SN12C Renal

GGRPVER
Cell Line the peptide is associated with (peptide recovered from phage library selection on this NCI-60 cell line): UO31 Renal

TGFGAVG
Cell Line with which the peptide (and its tripeptide motif) is associated: HL-60-Leukemia

GSGVRVS
Cell Line (NCI-60 cell line the peptide and its motif are associated with): SK-MEL-28 Melanoma

QVLLRSF
Cell Line with which the peptide (and its tripeptide motif) is associated: Hop-62-Lung

PGAVPGA
Cell Line (NCI-60 cell line the peptide is associated with): HT-29 Colon

GLGGGGS
Cell Line (NCI-60 cell line the peptide is associated with): SF-268 CNS

LPCGGLA
Cell Line (NCI-60 cell line the peptide is associated with): SNB-19 CNS; also recorded: SF-539 CNS

EAVSGRR
Cell Line the peptide is associated with (peptide recovered from phage library selection on this NCI-60 cell line): HS 578 T Breast

TDGVRAF
Cell Line (NCI-60 cell line the peptide and its motif are associated with): UACC 257 Melanoma

DWVGVLM
Cell Line (NCI-60 cell line the peptide and its motif are associated with): UACC62 Melanoma

ASLSVVI
Cell Line the peptide is associated with (peptide recovered from phage library selection on this NCI-60 cell line): UO31 Renal

RAMGGAG
Cell Line with which the peptide (and its tripeptide motif) is associated: RPMI-8226-Leukemia

GRGGSGY
Cell Line (NCI-60 cell line the peptide is associated with): HT-29 Colon

WGAGFWM
Cell Line with which the peptide (and its tripeptide motif) is associated: H460-Lung

SLGLRNQ
Cell Line with which the peptide (and its tripeptide motif) is associated: CCRF-CEM Leukemia

AGGWRGR
Cell Line (NCI-60 cell line the peptide is associated with): SF-268 CNS

GGPGLVM
Cell Line (NCI-60 cell line the peptide and its motif are associated with): OVCAR-4 Ovarian

RNPGRLA
Cell Line (NCI-60 cell line the peptide is associated with): HT-29 Colon

SVHLVSG
Cell Line the peptide is associated with (peptide recovered from phage library selection on this NCI-60 cell line): HS 578 T Breast

IGLRGEN
Cell Line (NCI-60 cell line the peptide is associated with): SNB-75 CNS

GAGGVDV
Cell Line (NCI-60 cell line the peptide and its motif are associated with): 786-0 Renal

VMWVARG
Cell Line (NCI-60 cell line the peptide is associated with): KM-12C Colon

DLGSVQH
Cell Line (NCI-60 cell line the peptide is associated with): HT-29 Colon

SRYWLRS
Cell Line with which the peptide (and its tripeptide motif) is associated: H522-Lung

PRLGRLL
Cell Line the peptide is associated with (peptide recovered from phage library selection on this NCI-60 cell line): TK-10 Renal

LAGSRVS
Cell Line (NCI-60 cell line the peptide and its motif are associated with): OVCAR-4 Ovarian

GRLYYYR
Cell Line with which the peptide (and its tripeptide motif) is associated: RPMI-8226-Leukemia

RRAGGSV
Cell Line (NCI-60 cell line the peptide and its motif are associated with): OVCAR-5 Ovarian

VLRSIPS
Cell Line (NCI-60 cell line the peptide is associated with): SF-295 CNS

ERVSAAV
Cell Line (NCI-60 cell line the peptide and its motif are associated with): OVCAR-3 Ovarian

RIGAVWY
Cell Line (NCI-60 cell line the peptide is associated with): HT-29 Colon

RRHGLLS
Cell Line with which the peptide (and its tripeptide motif) is associated: K-562-Leukemia

LAGGWGS
Cell Line (NCI-60 cell line the peptide is associated with): SF-295 CNS

LLRAGVR
Cell Line the peptide is associated with (peptide recovered from phage library selection on this NCI-60 cell line): UO31 Renal

DLDGRVV
Cell Line (NCI-60 cell line the peptide is associated with): COLO-205-Colon

PYRRGSC
Cell Line the peptide is associated with (peptide recovered from phage library selection on this NCI-60 cell line): MDA-MB-231 Breast

PATRGSV
Cell Line with which the peptide (and its tripeptide motif) is associated: Hop-92-Lung

HAAVEPS
Cell Line (NCI-60 cell line the peptide and its motif are associated with): OVCAR-5 Ovarian

GGALLRG
Cell Line with which the peptide (and its tripeptide motif) is associated: Hop-92-Lung

GRVTVAV
Cell Line with which the peptide (and its tripeptide motif) is associated: A549-Lung

GRGSFES
Cell Line with which the peptide (and its tripeptide motif) is associated: SR Leukemia

NWDARGR
Cell Line (NCI-60 cell line the peptide and its motif are associated with): M14 Melanoma

WDGSSVS
Cell Line the peptide is associated with (peptide recovered from phage library selection on this NCI-60 cell line): SN12C Renal

EVLVSGD
Cell Line with which the peptide (and its tripeptide motif) is associated: Molt-4-Leukemia

GGLMPRY
Cell Line the peptide is associated with (peptide recovered from phage library selection on this NCI-60 cell line): BT-549 Breast

FLLRSSF
Cell Line with which the peptide (and its tripeptide motif) is associated: SR Leukemia

LRSYAWS
Cell Line (NCI-60 cell line the peptide is associated with): SNB-19 CNS; also recorded: SF-539 CNS

AVSGRGW
Cell Line with which the peptide (and its tripeptide motif) is associated: Molt-4-Leukemia

ELHPRGV
Cell Line with which the peptide (and its tripeptide motif) is associated: K-562-Leukemia

GGVLGSD
Cell Line (NCI-60 cell line the peptide is associated with): LOX-IMVI Melanoma

LVRASNG
Cell Line (NCI-60 cell line the peptide and its motif are associated with): SK-MEL-28 Melanoma

MGMSGPS
Cell Line with which the peptide (and its tripeptide motif) is associated: CCRF-CEM Leukemia

QLGGSFR
Cell Line (NCI-60 cell line the peptide and its motif are associated with): SK-MEL-28 Melanoma

GGGSWLI
Cell Line with which the peptide (and its tripeptide motif) is associated: EKVX-Lung

PPGASLY
Cell Line (NCI-60 cell line the peptide and its motif are associated with): M14 Melanoma

GAGLSTS
Cell Line with which the peptide (and its tripeptide motif) is associated: H322-Lung

GRLWYVA
Cell Line (NCI-60 cell line the peptide and its motif are associated with): DU-145 Prostate

WARAGGF
Cell Line (NCI-60 cell line the peptide is associated with): SNB-19 CNS; also recorded: SF-539 CNS

NSQRSSV
Cell Line (NCI-60 cell line the peptide and its motif are associated with): UACC 257 Melanoma

HAGLLVV
Cell Line the peptide is associated with (peptide recovered from phage library selection on this NCI-60 cell line): TK-10 Renal

LMLVSGK
Cell Line the peptide is associated with (peptide recovered from phage library selection on this NCI-60 cell line): NCI/ADR-RES Breast

AGGFRFI
Cell Line (NCI-60 cell line the peptide and its motif are associated with): SK-MEL-2 Melanoma

RWLSLLS
Cell Line (NCI-60 cell line the peptide is associated with): MALME-3M Melanoma

SWRPLVS
Cell Line with which the peptide (and its tripeptide motif) is associated: Hop-62-Lung

SLVSERA
Cell Line the peptide is associated with (peptide recovered from phage library selection on this NCI-60 cell line): HS 578 T Breast

ALVSRRG
Cell Line with which the peptide (and its tripeptide motif) is associated: Molt-4-Leukemia

LFRWGGR
Cell Line (NCI-60 cell line the peptide and its motif are associated with): SK-MEL-28 Melanoma

LAQGRLA
Cell Line (NCI-60 cell line the peptide is associated with): HT-29 Colon

YRALAGG
Cell Line the peptide is associated with (peptide recovered from phage library selection on this NCI-60 cell line): MDA-MB-435-Breast

RLLSAFG
Cell Line (NCI-60 cell line the peptide is associated with): HCT-15 Colon

GVSIRQL
Cell Line with which the peptide (and its tripeptide motif) is associated: H460-Lung

YAGSGQL
Cell Line (NCI-60 cell line the peptide and its motif are associated with): OVCAR-8 Ovarian

GGSVEGQ
Cell Line the peptide is associated with (peptide recovered from phage library selection on this NCI-60 cell line): ACHN Renal

NSGSVVS
Cell Line the peptide is associated with (peptide recovered from phage library selection on this NCI-60 cell line): MDA-MB-231 Breast

FTLRVDK
Cell Line with which the peptide (and its tripeptide motif) is associated: K-562-Leukemia

LGVRLAS
Cell Line the peptide is associated with (peptide recovered from phage library selection on this NCI-60 cell line): BT-549 Breast

NAGRGAS
Cell Line the peptide is associated with (peptide recovered from phage library selection on this NCI-60 cell line): TK-10 Renal

LLSVTSX
Cell Line the peptide is associated with (peptide recovered from phage library selection on this NCI-60 cell line): SN12C Renal

VLSAVSS
Cell Line (NCI-60 cell line the peptide is associated with): SNB-19 CNS; also recorded: SF-539 CNS

GRVGRDG
Cell Line the peptide is associated with (peptide recovered from phage library selection on this NCI-60 cell line): A498 Renal

AGRGISQ
Cell Line (NCI-60 cell line the peptide and its motif are associated with): UACC62 Melanoma

SDLGLRR
Cell Line (NCI-60 cell line the peptide and its motif are associated with): DU-145 Prostate

RHFGLRE
Cell Line with which the peptide (and its tripeptide motif) is associated: H522-Lung

GSSELSR
Cell Line (NCI-60 cell line the peptide and its motif are associated with): DU-145 Prostate

DVHARGD
Cell Line the peptide is associated with (peptide recovered from phage library selection on this NCI-60 cell line): NCI/ADR-RES Breast

GAVTGYP
Cell Line (NCI-60 cell line the peptide is associated with): SF-268 CNS

RVVGAVL
Cell Line the peptide is associated with (peptide recovered from phage library selection on this NCI-60 cell line): ACHN Renal

TFRGAGV
Cell Line the peptide is associated with (peptide recovered from phage library selection on this NCI-60 cell line): MDA-MB-231 Breast

AGLLSDV
Cell Line the peptide is associated with (peptide recovered from phage library selection on this NCI-60 cell line): NCI/ADR-RES Breast

TVGSSLG
Cell Line the peptide is associated with (peptide recovered from phage library selection on this NCI-60 cell line): T-47D Breast

LRSRLGF
Cell Line with which the peptide (and its tripeptide motif) is associated: SR Leukemia

GSSVSLG
Cell Line the peptide is associated with (peptide recovered from phage library selection on this NCI-60 cell line): BT-549 Breast

GGASLTQ
Cell Line (NCI-60 cell line the peptide is associated with): SF-295 CNS

FWRGSVP
Cell Line with which the peptide (and its tripeptide motif) is associated: A549-Lung

YGIGVRL
Cell Line with which the peptide (and its tripeptide motif) is associated: H23-Lung

SRFRVSI
Cell Line with which the peptide (and its tripeptide motif) is associated: CCRF-CEM Leukemia

SVSRGRV
Cell Line the peptide is associated with (peptide recovered from phage library selection on this NCI-60 cell line): A498 Renal

WQVALRS
Cell Line (NCI-60 cell line the peptide is associated with): HT-29 Colon

PGGLVPG
Cell Line (NCI-60 cell line the peptide is associated with): HT-29 Colon

RQLVSPA
Cell Line (NCI-60 cell line the peptide is associated with): HT-29 Colon

RVGSVQW
Cell Line (NCI-60 cell line the peptide is associated with): KM-12C Colon

LGTAVSS
Cell Line (NCI-60 cell line the peptide is associated with): SF-268 CNS

QKPGAVG
Cell Line the peptide is associated with (peptide recovered from phage library selection on this NCI-60 cell line): T-47D Breast

TRGVIGG
Cell Line the peptide is associated with (peptide recovered from phage library selection on this NCI-60 cell line): T-47D Breast

FSPRGSV
Cell Line (NCI-60 cell line the peptide is associated with): SNB-19 CNS; also recorded: SF-539 CNS

GPSSAVE
Cell Line (NCI-60 cell line the peptide and its motif are associated with): OVCAR-5 Ovarian

PEGGRRP
Cell Line the peptide is associated with (peptide recovered from phage library selection on this NCI-60 cell line): SN12C Renal

RPAGGRT
Cell Line (NCI-60 cell line the peptide and its motif are associated with): PC3 Prostate

EHPAGGM
Cell Line with which the peptide (and its tripeptide motif) is associated: A549-Lung

ARHGSSV
Cell Line (NCI-60 cell line the peptide and its motif are associated with): M14 Melanoma

SSGGVLG
Cell Line with which the peptide (and its tripeptide motif) is associated: H460-Lung

EGVRGVF
Cell Line (NCI-60 cell line the peptide and its motif are associated with): A498 Renal | Cell Line the peptide is associated with (peptide recovered from phage library selection on this NCI-60 cell line): A498 Renal

LRSGAGS
Cell Line with which the peptide (and its tripeptide motif) is associated: Molt-4-Leukemia

RDLRVHL
Cell Line (NCI-60 cell line the peptide and its motif are associated with): UACC62 Melanoma

RGSWAGV
Cell Line (NCI-60 cell line the peptide is associated with): HT-29 Colon

LGRVHVW
Cell Line (NCI-60 cell line the peptide is associated with): HT-29 Colon

GGSSEFR
Cell Line with which the peptide (and its tripeptide motif) is associated: Hop-92-Lung

AVSKRLP
Cell Line with which the peptide (and its tripeptide motif) is associated: H522-Lung

GEGSGSA
Cell Line the peptide is associated with (peptide recovered from phage library selection on this NCI-60 cell line): MDA-MB-435-Breast

HVSGGSG
Cell Line with which the peptide (and its tripeptide motif) is associated: Hop-92-Lung

FLRGVEL
Cell Line (NCI-60 cell line the peptide and its motif are associated with): SK-OV-3-3 Ovarian

SAVSESP
Cell Line (NCI-60 cell line the peptide and its motif are associated with): SK-OV-3-3 Ovarian

VRGGLTG
Cell Line (NCI-60 cell line the peptide is associated with): HT-29 Colon

ARGRGSQ
Cell Line (NCI-60 cell line the peptide and its motif are associated with): PC3 Prostate

SKAVLRS
Cell Line (NCI-60 cell line the peptide and its motif are associated with): SK-MEL-2 Melanoma

SALRVGL
Cell Line the peptide is associated with (peptide recovered from phage library selection on this NCI-60 cell line): BT-549 Breast

SSLLSSL
Cell Line (NCI-60 cell line the peptide and its motif are associated with): SK-MEL-2 Melanoma

LYMGGSH
Cell Line the peptide is associated with (peptide recovered from phage library selection on this NCI-60 cell line): TK-10 Renal

YNRSAGL
Cell Line with which the peptide (and its tripeptide motif) is associated: CCRF-CEM Leukemia

SVTGSVG
Cell Line (NCI-60 cell line the peptide and its motif are associated with): IGROV1 Ovarian
